Test results reported in publication PMC10218498, “Exploring BenzylethoxyAryl Urea Scaffolds for Multitarget Immunomodulation Therapies” (International Journal of Molecular Sciences, 2023).

Tests used:
VEGFR-2 = VEGFR-2 (Homo sapiens, UniProt P35968); experiment: VEGFR-2 relative quantification by flow cytometry in HT-29; assay type: cell-based; set-up: Both membrane and total PD-L1 and VEGFR-2 were relatively determined using DMSO-treated cells as a negative control; endogenous in cells; host or cells: HT-29; conditions: 24 h; for Total VEGFR-2 (%): relative to DMSO control = 100; for inhibition at 20 µM: HT-29, HT-29, 20 µM, read-out: inhibition rate of VEGFR-2
Experimental: For these assays, cells were incubated for 24 h in the presence of the corresponding compounds at 20 µM concentration.
(§1) To study the effect of the compounds on every biological target in cancer cell lines, the compounds were used at 20 µM dose.
(§2) For the assay, 10^5 cells per well were incubated for 24 h with the corresponding dose of the tested compound in a total volume of 500 μL of their growth media.
On the one hand, to detect total PD-L1 and VEGFR-2, after the cell treatments, they were collected and fixed with 4% in PBS paraformaldehyde.
(§3) On the other hand, to detect membrane PD-L1 and VEGFR-2, the process was the same, avoiding the treatment with 0.5% in PBS TritonTM X-100 step.

PD-L1 [1] = biological target: T1, PD-L1 (Homo sapiens, UniProt Q9NZQ7); experiment: PD-L1 relative quantification by flow cytometry in MCF-7; assay type: cell-based; set-up: endogenous in cells; host or cells: MCF-7; conditions: MCF-7, 20 µM, 24 h; for % PD-L1 Memb. / % PD-L1 Total: control = 100
Experimental: In view of the good results obtained for these selected compounds, we decided to extend the study to a third cancer cell line, MCF-7 (Human breast cancer adenocarcinoma). First, we determined the IC50 values of the derivatives and their SI indexes (see Table 4). Then, we determined the effect of the selected compounds on the biological targets, PD-L1 and VEGFR-2, by flow cytometry. […] As usually, the assay was performed at a concentration of 20 µM for 24 h.
as §1, §2
(§4) On the one hand, to detect total PD-L1 and VEGFR-2, after the cell treatments, they were collected and fixed with 4% in PBS paraformaldehyde. After fixation, a treatment with 0.5% in PBS TritonTM X-100 was performed, and finally, cells were stained with FITC Mouse monoclonal Anti-Human VEGFR-2 (ab184903) and Alexa Fluor® 647 Rabbit monoclonal Anti-PD-L1 (ab215251).
as §3

Jurkat T cells = experiment: MTT cell proliferation assay, Jurkat T cells; assay type: cell-based; conditions: Homo sapiens, 48 h of treatment
Experimental: (§5) This assay allowed us to establish the corresponding IC50 values (expressed as the concentration, in μM, at which 50% of cell viability is achieved), shown in Table 1.
(§6) In 96-well plates, 5 × 10^3 (HT-29, MCF-7, A549, HMEC-1, Jurkat, and HEK-293) cells per well were incubated with serial dilutions of the tested compounds in a total volume of 100 μL of their respective growth media. The 3-(4,5-dimethylthiazol-2-yl)-2,5-diphenyltetrazolium bromide (MTT; Sigma Chemical Co.) dye reduction assay in 96-well microplates was used. After 2 days of incubation (37 °C, 5% CO2 in a humid atmosphere), 10 μL of MTT (5 mg/mL in phosphate-buffered saline, PBS) was added to each well, and the plate was incubated for a further 3 h (37 °C). After that, the supernatant was discarded and replaced by 100 µL of DMSO to dissolve formazan crystals. The absorbance was then read at 550 nm by spectrophotometry. For all concentrations of compound, cell viability was expressed as the percentage of the ratio between the mean absorbance of treated cells and the mean absorbance of untreated cells. Three independent experiments were performed, and the IC50 values (i.e., concentration half inhibiting cell proliferation) were graphically determined using GraphPad Prism 4 software.

PD-L1 [2] = biological target: T1, PD-L1; experiment: PD-L1 relative quantification by flow cytometry in HT-29; assay type: cell-based; set-up: endogenous in cells; host or cells: HT-29; conditions: 24 h; for Total PD-L1 (%): relative to DMSO control = 100; for inhibition at 20 µM: read-out: inhibition rate of PD-L1
Experimental: To assess the effect of the selected compounds on the biological targets PD-L1 and VEFGR-2, we performed the study on both cancer cell lines HT-29 and A-549 and by flow cytometry technique. […] For these assays, cells were incubated for 24 h in the presence of the corresponding compounds at 20 µM concentration.
as §1, §2, §4, §3

CD80 = CD80 relative quantification by flow cytometry in co-cultured THP-1; assay type: cell-based, human; conditions: 20 μM, related to non-treated cells
Experimental: Reducing the expression of CD11b has become a promising target for immune modulation in anti-cancer therapies. For that reason, we decided to study the effect of our compounds on CD11b in THP-1 cells co-cultured with HT-29. We also determine the relative amount of CD80, a common surface marker for monocytes. This study was performed on the collected cell culture from each well and gating living THP-1 cell population.
To study the effect of the compounds on every biological target in co-cultured THP-1 immune cells with cancer cell line HT-29, the compounds were incubated for 24 h/48 h as described before.
To detect membrane CD11b and CD80, after the cell incubation, suspended THP-1 was collected from the cell culture of each sample well, fixed with 4% in PBS paraformaldehyde, and stained with FITC Mouse monoclonal Anti-Human CD80 (Sigma-Aldrich, S. Louis, MO, USA, SAB4700142) and Alexa Fluor® 647 Rabbit monoclonal Anti-CD11b (Merck, S. Louis, MO, USA, #MABF366).

THP-1 cells = experiment: Immune cell viability in monoculture and co-cultures with HT-29 by flow cytometry; assay type: cell-based, human; conditions: for THP-1 living cells compared to control (%), Monocult. THP-1: THP-1 monoculture, 20 μM; for THP-1 living cells compared to control (%), 1:5 HT-29/THP-1, 24 h / THP-1 living cells compared to control (%), 1:5 HT-29/THP-1, 48 h: co-culture 1:5 HT-29/THP-1, 20 μM; for THP-1 living cells compared to control (%), 2:1 HT-29/THP-1, 24 h / THP-1 living cells compared to control (%), 2:1 HT-29/THP-1, 48 h: co-culture 2:1 HT-29/THP-1, 20 μM
Experimental: From the previous study, we also determined the effect of the selected compounds on the human monocyte cells THP-1 in the described co-cultures. We also assessed the effect of the compounds on the cell viability of monocultured THP-1.
On the other hand, to study the effect of the compounds on the cell viability in co-culture with THP-1 cells, 10^5 or 2 × 10^5 of the HT-29 cells line per well were seeded and incubated for 24 h, then the medium was changed by one cell culture medium supplemented with IFN-γ (10 ng/mL; human, Invitrogen®, Waltham, MA, USA) and containing 5 × 10^5 or 105, respectively, of THP-1 per well and the corresponding compound at 20 μM or DMSO for the positive control. After 24 h/48 h of incubation, supernatants were collected to determine THP-1 living cells. Additionally, stain cancer cells were collected with trypsin. Both types of suspension cells were fixed with 4% in PBS paraformaldehyde and counted by flow cytometry.

[3] = test system: HEK-293 (human embryonic kidney cells); experiment: MTT cell proliferation assay, HEK-293; assay type: cell-based; conditions: HEK293, 48 h of treatment
Experimental: as §5, §6

[4] = membrane THP-1, 1:5 HT-29/THP-1, 24 h
[5] = membrane THP-1, 2:1 HT-29/THP-1, 48 h

Sequence of VEGFR-2 (P35968 20-1356): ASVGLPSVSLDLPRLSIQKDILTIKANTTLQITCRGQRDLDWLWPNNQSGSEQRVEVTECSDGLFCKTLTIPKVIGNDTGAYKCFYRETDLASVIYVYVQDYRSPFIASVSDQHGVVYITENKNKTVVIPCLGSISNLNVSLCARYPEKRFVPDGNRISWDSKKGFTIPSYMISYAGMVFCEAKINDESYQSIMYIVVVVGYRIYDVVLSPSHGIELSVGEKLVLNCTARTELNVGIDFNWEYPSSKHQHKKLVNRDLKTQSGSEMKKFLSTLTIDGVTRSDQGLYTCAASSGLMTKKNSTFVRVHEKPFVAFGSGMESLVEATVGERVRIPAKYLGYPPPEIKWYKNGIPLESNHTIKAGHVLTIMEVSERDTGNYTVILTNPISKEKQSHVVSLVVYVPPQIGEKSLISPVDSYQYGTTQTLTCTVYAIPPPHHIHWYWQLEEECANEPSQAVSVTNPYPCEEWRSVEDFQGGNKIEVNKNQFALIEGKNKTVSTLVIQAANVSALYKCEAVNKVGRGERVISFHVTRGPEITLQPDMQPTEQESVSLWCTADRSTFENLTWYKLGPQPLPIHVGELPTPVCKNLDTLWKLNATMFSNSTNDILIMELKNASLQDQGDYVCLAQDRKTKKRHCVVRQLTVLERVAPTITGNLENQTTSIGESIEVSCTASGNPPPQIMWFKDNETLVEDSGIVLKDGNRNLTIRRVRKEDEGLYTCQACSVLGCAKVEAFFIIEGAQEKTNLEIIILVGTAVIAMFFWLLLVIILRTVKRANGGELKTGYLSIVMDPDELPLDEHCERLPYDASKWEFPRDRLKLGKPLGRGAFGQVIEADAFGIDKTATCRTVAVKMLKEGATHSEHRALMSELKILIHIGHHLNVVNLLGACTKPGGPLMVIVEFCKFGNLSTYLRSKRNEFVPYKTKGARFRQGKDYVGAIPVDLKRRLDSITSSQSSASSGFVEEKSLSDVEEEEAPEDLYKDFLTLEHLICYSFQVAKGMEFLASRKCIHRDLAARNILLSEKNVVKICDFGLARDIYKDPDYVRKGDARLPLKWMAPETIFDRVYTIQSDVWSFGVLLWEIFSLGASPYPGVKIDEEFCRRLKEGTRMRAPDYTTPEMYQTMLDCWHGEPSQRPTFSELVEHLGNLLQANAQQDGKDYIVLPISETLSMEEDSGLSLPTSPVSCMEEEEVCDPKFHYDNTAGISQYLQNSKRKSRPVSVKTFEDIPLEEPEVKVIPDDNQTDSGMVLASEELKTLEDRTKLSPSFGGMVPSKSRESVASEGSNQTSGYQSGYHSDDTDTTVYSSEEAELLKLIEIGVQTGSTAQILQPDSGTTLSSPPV
T1 sequence (Q9NZQ7 19-290): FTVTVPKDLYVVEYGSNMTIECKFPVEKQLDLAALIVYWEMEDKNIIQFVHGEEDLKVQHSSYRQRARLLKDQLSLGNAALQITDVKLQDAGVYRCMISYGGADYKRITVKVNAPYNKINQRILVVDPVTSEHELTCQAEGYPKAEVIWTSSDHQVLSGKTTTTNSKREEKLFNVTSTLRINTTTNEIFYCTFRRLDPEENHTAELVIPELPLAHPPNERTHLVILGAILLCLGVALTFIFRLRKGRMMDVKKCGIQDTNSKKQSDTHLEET

Row | Compound | Total VEGFR-2 (%) (VEGFR-2; HT-29, 20 µM) | % PD-L1 Memb. (PD-L1 [1]) [%] | % PD-L1 Total (PD-L1 [1]) [%] | IC50 (Jurkat T cells) [µM] | Total PD-L1 (%) (PD-L1 [2]; HT-29, 20 µM) | % CD80 (CD80; [4]) [%] | % CD80 (CD80; [5]) [%] | THP-1 living cells compared to control (%), Monocult. THP-1 (THP-1 cells) [%] | THP-1 living cells compared to control (%), 1:5 HT-29/THP-1, 24 h (THP-1 cells) [%] | THP-1 living cells compared to control (%), 1:5 HT-29/THP-1, 48 h (THP-1 cells) [%] | THP-1 living cells compared to control (%), 2:1 HT-29/THP-1, 24 h (THP-1 cells) [%] | THP-1 living cells compared to control (%), 2:1 HT-29/THP-1, 48 h (THP-1 cells) [%] | IC50 [3] [µM] | inhibition at 20 µM (VEGFR-2) [%] | inhibition at 20 µM (PD-L1 [2]; HT-29, HT-29, 20 µM) [%] | inhibition rate of VEGFR-2 (VEGFR-2; HT-29, 20 µM) | inhibition at 20 µM (PD-L1 [1]; MCF7, read-out: inhibition rate for total PD-L1) [%] | inhibition rate of PD-L1 (PD-L1 [2]; HT-29, 20 µM) | inhibition at 20 µM (PD-L1 [2]; HT-29, 20 µM) [%]
1 | Cc1c(COc2ccc(CN3CCCCC3C(=O)O)cc2Br)cccc1-c1ccccc1 (centres unmarked) [BMS-8, reference compound] | 86 ± 21 | 88 ± 11 | 197 | > 100 | 82 ± 21 | 101 ± 6 | 101 ± 6 | 99 ± 2 | 94 ± 0 | 93 ± 0 | 101 ± 9 | 97 ± 2 | 60 ± 10 | – | – | – | – | – | –
2 | COc1ccc(COc2cccc(NC(=O)Nc3ccc(F)cc3)c2)cc1 [Compound 2] | 62 ± 15 | 81 ± 10 | 62 ± 15 | > 100 | 71 ± 15 | 99 ± 5 | 105 ± 1 | 111 ± 13 | 97 ± 7 | 105 ± 4 | 90 ± 28 | 105 ± 1 | > 100 | ~50 | ~50 | – | – | – | –
3 | COc1ccc(COc2cccc(NC(=O)Nc3ccc(Br)cc3)c2)cc1 [Compound 8] | 46 ± 18 | 94 ± 12 | 87 ± 23 | > 100 | 40 ± 2 | 95 ± 9 | 103 ± 2 | 98 ± 10 | 95 ± 12 | 100 ± 11 | 82 ± 14 | 97 ± 9 | > 100 | ~60 | ~60 | – | – | – | –
4 | COc1ccc(COc2cccc(NC(=O)Nc3ccc(OC)cc3)c2)cc1 [Compound 11] | 168 ± 12 | 100 ± 7 | 57 ± 15 | > 100 | 118 ± 3 | 102 ± 6 | 103 ± 2 | 103 ± 7 | 105 ± 4 | 94 ± 9 | 66 ± 24 | 102 ± 5 | > 100 | – | – | no inhibitory effect | ~40 | no inhibitory effect | –
5 | COc1ccc(COc2cccc(NC(=O)Oc3ccccc3)c2)cc1 [Compound 14] | 43 ± 12 | 81 ± 8 | 85 ± 15 | > 100 | 68 ± 5 | 99 ± 6 | 102 ± 1 | 127 ± 12 | 93 ± 9 | 97 ± 9 | 81 ± 6 | 109 ± 2 | > 100 | ~60 | – | – | – | – | ~40
